From patent US20090143279A1 (priority 2007, published 2009)
Like-named read-outs stand apart in the source and are kept apart here.

Key:
[1] = test system: mitochondrial membrane potential; format: cell-based, mouse; details: for ΔΨm (composite Z-score): normalized score vs mock-treated (DMSO) wells
reactive oxygen species = format: cell-based, mouse; details: for ROS (composite Z-score): normalized score vs mock-treated (DMSO) wells
OXPHOS gene expression = format: cell-based, mouse; details: for GE-HTS (composite Z-score): normalized score vs mock-treated (DMSO) wells
nuOXPHOS transcripts = format: cell-based, mouse; details: for nucOX (composite Z-score): normalized score vs mock-treated (DMSO) wells
mtOXPHOS transcripts = format: cell-based, mouse; details: for mitoOX (composite Z-score): normalized score vs mock-treated (DMSO) wells
cytochrome c = format: cell-based, mouse; details: for cyt c (composite Z-score): normalized score vs mock-treated (DMSO) wells
C2C12 myotubes = details: for Viability (composite Z-score): normalized score vs mock-treated (DMSO) wells
[2] = test system: cellular dehydrogenase activity; details: for MTT (composite Z-score): normalized score vs mock-treated (DMSO) wells
[3] = normalized composite Z-score vs mock-treated (DMSO) wells, Conc 20 μM
[4] = composite Z-score vs DMSO, Conc 8.92 μM
[5] = composite Z-score vs DMSO, Conc 20 μM
[6] = 20 μM, composite Z-score vs DMSO
[7] = composite Z-score vs mock-treated (DMSO) wells, Conc 20 μM
[8] = composite Z-score vs DMSO wells, Conc 20 μM

CC(=O)Oc1ccc(/C=C/c2cc(OC(C)=O)cc(OC(C)=O)c2)cc1 [triacetylresveratrol]
ΔΨm [1, 3]: −3.502 | ROS (reactive oxygen species; [3]): −1.361 | GE-HTS (OXPHOS gene expression; [3]): −1.841 | nucOX (nuOXPHOS transcripts; [3]): −1.858 | mitoOX (mtOXPHOS transcripts; [3]): −1.401 | cyt c (cytochrome c; [3]): 0.683 | Viability (C2C12 myotubes; [3]): −0.198 | MTT [2, 3]: −2.002

CC(CN(C)C)CN1c2ccccc2Sc2ccccc21 (centres unmarked) [trimeprazine]
ΔΨm [1, 4]: −0.821 | ΔΨm [1, 5]: 1.905 | ROS (reactive oxygen species; [4]): 1.314 | ROS (reactive oxygen species; [5]): −0.430 | GE-HTS (OXPHOS gene expression; [4]): −0.942 | GE-HTS (OXPHOS gene expression; [5]): −0.013 | nucOX (nuOXPHOS transcripts; [4]): −0.936 | nucOX (nuOXPHOS transcripts; [5]): −0.130 | mitoOX (mtOXPHOS transcripts; [4]): −0.778 | mitoOX (mtOXPHOS transcripts; [5]): 0.208 | cyt c (cytochrome c; [4]): −2.786 | cyt c (cytochrome c; [5]): −0.086 | Viability (C2C12 myotubes; [4]): 0.760 | Viability (C2C12 myotubes; [5]): −1.472 | MTT [2, 4]: −2.221 | MTT [2, 5]: −2.227

CC(C)c1ccc2c(c1O)CC[C@H]1C3=C(CC[C@]21C)C(=O)OC3 [triptophenolide]
ΔΨm (composite Z-score) ([1]; Conc 20 μM): 1.886 | ROS (composite Z-score) (reactive oxygen species; Conc 20 μM): −1.072 | GE-HTS (composite Z-score) (OXPHOS gene expression; Conc 20 μM): −0.110 | nucOX (composite Z-score) (nuOXPHOS transcripts; Conc 20 μM): 0.038 | mitoOX (composite Z-score) (mtOXPHOS transcripts; Conc 20 μM): −0.350 | cyt c (composite Z-score) (cytochrome c; Conc 20 μM): −0.593 | Viability (composite Z-score) (C2C12 myotubes; Conc 20 μM): −0.599 | MTT (composite Z-score) ([2]; Conc 20 μM): −1.067

CO[C@H]1C[C@H](O[C@H]2[C@H](C)[C@@H](O[C@@H]3O[C@H](C)C[C@H](N(C)C)[C@H]3OC(C)=O)[C@@H](C)C[C@@]3(CO3)C(=O)[C@H](C)[C@@H](OC(C)=O)[C@@H](C)[C@@H](C)OC(=O)[C@@H]2C)O[C@@H](C)[C@@H]1OC(C)=O [troleandomycin]
ΔΨm [1, 5]: −0.780 | ROS (reactive oxygen species; [5]): 0.099 | GE-HTS (OXPHOS gene expression; [5]): −1.234 | nucOX (nuOXPHOS transcripts; [5]): −1.277 | mitoOX (mtOXPHOS transcripts; [5]): −0.905 | cyt c (cytochrome c; [5]): −0.063 | Viability (C2C12 myotubes; [5]): −1.520 | MTT [2, 5]: −1.250

C=C(C)C1Cc2c(ccc(C(=O)O)c2O)O1 (centres unmarked) [tubaic acid]
ΔΨm (composite Z-score) ([1]; Conc 20 μM): −0.489 | ROS (composite Z-score) (reactive oxygen species; Conc 20 μM): 0.646 | GE-HTS (composite Z-score) (OXPHOS gene expression; Conc 20 μM): −0.746 | nucOX (composite Z-score) (nuOXPHOS transcripts; Conc 20 μM): −1.065 | mitoOX (composite Z-score) (mtOXPHOS transcripts; Conc 20 μM): 0.070 | cyt c (composite Z-score) (cytochrome c; Conc 20 μM): 0.089 | Viability (composite Z-score) (C2C12 myotubes; Conc 20 μM): −0.569 | MTT (composite Z-score) ([2]; Conc 20 μM): 0.150

CC(C)(C)NCC(O)c1ccccc1Cl (centres unmarked) [tulobuterol]
ΔΨm [1, 6]: −1.186 | ROS (reactive oxygen species; [6]): 0.569 | GE-HTS (OXPHOS gene expression; [6]): −0.101 | nucOX (nuOXPHOS transcripts; [6]): −0.257 | mitoOX (mtOXPHOS transcripts; [6]): 0.258 | cyt c (cytochrome c; [6]): 0.326 | Viability (C2C12 myotubes; [6]): −0.239 | MTT [2, 6]: −0.706

C[C@H](CCC(=O)O)[C@H]1CC[C@H]2[C@@H]3CC[C@@H]4CCCC[C@]4(C)[C@H]3CC[C@]12C [ursocholanic acid]
ΔΨm [1, 5]: −1.738 | ROS (reactive oxygen species; [5]): 0.978 | GE-HTS (OXPHOS gene expression; [5]): −0.920 | nucOX (nuOXPHOS transcripts; [5]): −0.946 | mitoOX (mtOXPHOS transcripts; [5]): −0.657 | cyt c (cytochrome c; [5]): 1.303 | Viability (C2C12 myotubes; [5]): 0.050 | MTT [2, 5]: −0.246

CCC(C)C(=O)O[C@@H]1C[C@@]2(C)[C@H](c3ccoc3)OC(=O)CC23OC2(C)O[C@]14[C@]1(C)[C@@H](CC(=O)OC)C5(C)CC1(O)[C@](O)(C5OC(=O)C1(C)OC1C)[C@@H](OC(C)=O)[C@]34O2 (some centres unmarked) [utilin]
ΔΨm [1, 7]: −0.122 | ROS (reactive oxygen species; [7]): 0.482 | GE-HTS (OXPHOS gene expression; [7]): −0.939 | nucOX (nuOXPHOS transcripts; [7]): −0.861 | mitoOX (mtOXPHOS transcripts; [7]): −0.975 | cyt c (cytochrome c; [7]): −0.038 | Viability (C2C12 myotubes; [7]): 1.131 | MTT [2, 7]: −1.571

COC(=O)/C(=C1/OC(=O)C(c2ccccc2)=C1O)c1ccccc1 [vulpinic acid]
ΔΨm [1, 6]: −3.484 | ROS (reactive oxygen species; [6]): 1.407 | GE-HTS (OXPHOS gene expression; [6]): −0.152 | nucOX (nuOXPHOS transcripts; [6]): 0.168 | mitoOX (mtOXPHOS transcripts; [6]): −0.792 | cyt c (cytochrome c; [6]): 1.037 | Viability (C2C12 myotubes; [6]): −1.120 | MTT [2, 6]: 0.403

CC1(C)C=Cc2cc3ccc(=O)oc3cc2O1 [xanthyletin]
ΔΨm [1, 7]: −0.220 | ROS (reactive oxygen species; [7]): 0.217 | GE-HTS (OXPHOS gene expression; [7]): 1.029 | nucOX (nuOXPHOS transcripts; [7]): 0.924 | mitoOX (mtOXPHOS transcripts; [7]): 1.085 | cyt c (cytochrome c; [7]): −0.029 | Viability (C2C12 myotubes; [7]): −0.674 | MTT [2, 7]: −1.741

COC(=O)[C@@H]1[C@H]2C[C@H]3c4[nH]c5ccccc5c4CCN3C[C@@H]2CC[C@@H]1O [yohimbine]
ΔΨm [1]: −1.197 | ROS (reactive oxygen species): 0.159 | GE-HTS (OXPHOS gene expression): −0.041 | nucOX (nuOXPHOS transcripts): 0.169 | mitoOX (mtOXPHOS transcripts): −0.471 | cyt c (cytochrome c): 0.699 | Viability (C2C12 myotubes): −0.860 | MTT [2]: −1.915

CCCOc1ccccc1-c1nc2nn[nH]c2c(=O)[nH]1 [zaprinast]
ΔΨm [1, 8]: −0.347 | ROS (reactive oxygen species; [8]): −0.482 | GE-HTS (OXPHOS gene expression; [8]): 0.076 | nucOX (nuOXPHOS transcripts; [8]): 0.220 | mitoOX (mtOXPHOS transcripts; [8]): −0.234 | cyt c (cytochrome c; [8]): 0.226 | Viability (C2C12 myotubes; [8]): 0.602 | MTT [2, 8]: −1.175
